{"source": "patent US20220023433A1", "about": "“Saponin Conjugates” (Sapreme Technologies B.V., priority 2018, published 2022)", "key": {"HeLa cells": {"system": "HeLa cells", "test": "Cell viability assay (MTS): co-administration with SO1861 and dianthin-EGF, inhibition of SO1861-mediated endosomal escape", "assay_type": "cell-based, human", "details": "500 nM test substance + SO1861 concentration curve + […] dianthin-EGF, 72 hr", "procedure": "HeLa cells were seeded in DMEM (PAN-Biotech GmbH) supplemented with 10% fetal bovine serum (PAN-Biotech GmbH) and 1% penicillin/streptomycin (PAN-Biotech GmbH), in a 96 well plate at 5,000 c/w in 100 μL/well and incubated overnight at 37° C. and 5% CO2. The next day 20× concentrated stocks of the PAMAM, PAMAM-conjugates, G4-dendron (prepared in Example 3) or chloroquine (Sigma Aldrich) samples were prepared in DMEM. The media was removed from the cell culture plate and replaced by […] culture media, followed by the addition of 10 μL sample/well (from the 20× concentrated stocks) and a 45 min incubation at 37° C. […] Followed by 15 sec sonication and a brief re-heating at 50° C. for 1 min, while shaking at 1,250 rpm. Subsequently a serial dilution of SO1861 was prepared in PBS.\nAs control for the inhibition of endosomal acidification chloroquine was used."}, "breast cancer": {"system": "breast cancer", "details": "preclinical models of breast cancer; cited from earlier work"}, "[1]": {"test": "pH dependent hydrolysis of the hydrazone bond followed by MALDI-TOF-MS", "assay_type": "physicochemical", "details": "HCl solution at pH 3; MALDI-TOF-MS at two points in time"}}, "data": [{"compound": "CCN(CC)CCCC(C)Nc1ccnc2cc(Cl)ccc12", "note": "(stereo not drawn) [chloroquine]", "values": [{"measurement": "inhibition of SO1861-mediated endosomal escape of the targeted toxin and subsequent cell killing", "setting": "HeLa cells", "value": "inhibit the SO1861-mediated endosomal escape of the targeted toxin and subsequent cell killing"}]}, {"compound": "ado-trastuzumab emtansine", "values": [{"measurement": "dose levels inducing tumor regression", "setting": "breast cancer", "value": "≥ 3", "unit": "mg/kg"}]}, {"compound": "CC(=O)OC1C(C)OC(OC2C(C)OC(OC(=O)[C@]34CCC(C)(C)CC3C3=CCC5[C@@]6(C)CC[C@H](OC7OC(C(=O)O)C(O)C(OC8OCC(O)C(O)C8O)C7OC7OC(CO)C(O)C(O)C7O)[C@@](C)(/C=N/NC(=O)CCCCCN7C(=O)C=CC7=O)C6CC[C@@]5(C)[C@]3(C)C[C@H]4O)C(OC3OC(C)C(OC4OCC(O)C(OC5OC(CO)C(O)C(O)C5O)C4O)C(O)C3O)C2O)C(O)C1OC1OCC(O)C(O)C1O", "note": "(stereo partly drawn) [SO1861-EMCH]", "values": [{"measurement": "hydrolysis of the hydrazone bond", "setting": "[1]", "value": "the hydrazone bond is responsive towards hydrolysis and gets cleaved"}]}]}
